Measured values: PubChem BioAssay AID278 (DTP/NCI, 2004)
Results filed as inconclusive are left out.

Test system: nude mice, A549 intrarenal xenograft, tumor weight change
Experiment: NCI In Vivo Anticancer Drug Screen. Data for tumor model A549 Human Adenocarcinoma of Lung with characteristics of Type II Alveolar Epithelial cells (intrarenal inoculation) in NU/NU BALB/C (nude) mice
Conditions: endpoint: mean tumor weight change, schedule: Q04DX003 (ip), higher = larger tumour
Method: The antitumor activity of compounds was measured in mice bearing transplantable tumors. Survival or tumor size were measured and the results are expressed as the measurement made in the treated group (T) divided by the measurement made in the vehicle treated control group (C). The tumor model used in this assay is A549 Human Adenocarcinoma of Lung with characteristics of Type II Alveolar Epithelial cells (intrarenal inoculation) in NU/NU BALB/C (nude) mice

[1] = dose: 150.0 mg/kg/injection, vehicle: suspension in saline
[2] = dose: 300.0 mg/kg/injection, vehicle: suspension in saline
[3] = dose: 37.5 mg/kg/injection, vehicle: saline with Tween-80
[4] = dose: 200.0 mg/kg/injection, vehicle: Klucel (hydroxypropylcellulose) (HPC)
[5] = dose: 25.0 mg/kg/injection, vehicle: saline with Tween-80
[6] = dose: 50.0 mg/kg/injection, vehicle: saline with Tween-80
[7] = dose: 25.0 mg/kg/injection, vehicle: saline
[8] = dose: 50.0 mg/kg/injection, vehicle: saline
[9] = dose: 125.0 mg/kg/injection, vehicle: saline with Tween-80
[10] = dose: 250.0 mg/kg/injection, vehicle: saline with Tween-80
[11] = dose: 500.0 mg/kg/injection, vehicle: saline with Tween-80
[12] = dose: 150.0 mg/kg/injection, vehicle: saline with Tween-80
[13] = dose: 100.0 mg/kg/injection, vehicle: saline with Tween-80
[14] = dose: 300.0 mg/kg/injection, vehicle: saline with Tween-80
[15] = dose: 600.0 mg/kg/injection, vehicle: saline with Tween-80
[16] = dose: 600.0 mg/kg/injection, vehicle: suspension in saline

`Cc1cc(NC(=S)SCc2ccc3c(c2)OCO3)ccc1Cl` was tested. Which T/C (dose: 300.0 mg/kg/injection, vehicle: Klucel (hydroxypropylcellulose) (HPC)) did it give?
The T/C was 61 % of control.

What about the T/C (dose: 600.0 mg/kg/injection, vehicle: Klucel (hydroxypropylcellulose) (HPC)) of the same compound?
The T/C was 73 % of control.

What does the source list for `C=CCSC(C)=O`?
T/C (dose: 62.5 mg/kg/injection, vehicle: suspension in saline): 83 % of control; T/C (dose: 125.0 mg/kg/injection, vehicle: suspension in saline): 53 % of control; T/C (dose: 250.0 mg/kg/injection, vehicle: suspension in saline): 90 % of control; T/C (dose: 500.0 mg/kg/injection, vehicle: suspension in saline): 71 % of control

How did the T/C (dose: 75.0 mg/kg/injection, vehicle: suspension in saline) turn out when `Nc1nc2n[nH]nc2c(=O)[nH]1` was run?
The T/C was 45 % of control.

What about the T/C [1] of the same compound?
The T/C was 60 % of control.

What about the T/C [2] of the same compound?
The T/C was 22 % of control.

Which T/C (dose: 3.13 mg/kg/injection, vehicle: Klucel (hydroxypropylcellulose) (HPC)) does the source give for `CN=C(NC)c1ccc(NC(=O)/C=C\c2ccc(/C=C/C(=O)Nc3ccc(C(=NC)NC)cc3)cc2)cc1` here?
Its T/C is 47 % of control.

And the T/C (dose: 6.25 mg/kg/injection, vehicle: Klucel (hydroxypropylcellulose) (HPC))?
Its T/C is 67 % of control.

And the T/C (dose: 12.5 mg/kg/injection, vehicle: Klucel (hydroxypropylcellulose) (HPC))?
The T/C was 47 % of control.

Which T/C (dose: 9.38 mg/kg/injection, vehicle: saline with Tween-80) does the source give for `c1ccc([Te][Te]c2ccccc2)cc1` here?
Its T/C is 71 % of control.

And the T/C (dose: 18.75 mg/kg/injection, vehicle: saline with Tween-80)?
The T/C was 59 % of control.

And the T/C [3]?
Its T/C is 122 % of control.

Which T/C (dose: 100.0 mg/kg/injection, vehicle: Klucel (hydroxypropylcellulose) (HPC)) does the source give for `CC(C)(C)NC(C1=CC(C)(C)c2ccccc2C1=O)c1ccccc1` (stereo not drawn) here?
Its T/C is 107 % of control.

And the T/C [4]?
Its T/C is 65 % of control.

With `S=C(N/N=C1/CCCC/C1=N/NC(=S)N1CCOCC1)N1CCOCC1` as the compound, how does the T/C (dose: 6.25 mg/kg/injection, vehicle: saline with Tween-80) read?
Its T/C is 71 % of control.

And the T/C (dose: 12.5 mg/kg/injection, vehicle: saline with Tween-80)?
The T/C was 27 % of control.

What about the T/C [5] of the same compound?
Its T/C is 37 % of control.

And the T/C [6]?
Its T/C is 82 % of control.

Which results are given for `COc1cccc2c1C(=O)c1c(O)c3c(c(O)c1C2=O)C[C@](O)(C(=O)CO)CC3OC1CC(N)C(OC2CCCCO2)C(C)O1` (stereo partly drawn)?
T/C (dose: 1.88 mg/kg/injection, vehicle: water): 35 % of control; T/C (dose: 3.75 mg/kg/injection, vehicle: water): 74 % of control; T/C (dose: 7.5 mg/kg/injection, vehicle: water): 28 % of control; T/C (dose: 15.0 mg/kg/injection, vehicle: water): 4 % of control

`CC(=O)/C(=C\c1ccc(Cl)c(Cl)c1)C(=O)CCN(C)C` was tested. Which T/C (dose: 12.5 mg/kg/injection, vehicle: saline) did it give?
The T/C was 78 % of control.

And the T/C [7]?
The T/C was 39 % of control.

And the T/C [8]?
Its T/C is 32 % of control.

How did the T/C [7] turn out when `C/C(=N\NC(=O)c1ccccc1O)c1cccc(/C(C)=N/NC(=O)c2ccccc2O)n1` was run?
Its T/C is 97 % of control.

What about the T/C [8] of the same compound?
Its T/C is 71 % of control.

What about the T/C (dose: 100.0 mg/kg/injection, vehicle: saline) of the same compound?
Its T/C is 65 % of control.

And the T/C (dose: 200.0 mg/kg/injection, vehicle: saline)?
The T/C was 77 % of control.

`CCCCCC[Se][Se]CCCCCC` was tested. Which T/C (dose: 10.0 mg/kg/injection, vehicle: Klucel (hydroxypropylcellulose) (HPC)) did it give?
Its T/C is 106 % of control.

And the T/C (dose: 20.0 mg/kg/injection, vehicle: Klucel (hydroxypropylcellulose) (HPC))?
Its T/C is 38 % of control.

What about the T/C (dose: 40.0 mg/kg/injection, vehicle: Klucel (hydroxypropylcellulose) (HPC)) of the same compound?
Its T/C is 70 % of control.

What about the T/C (dose: 80.0 mg/kg/injection, vehicle: Klucel (hydroxypropylcellulose) (HPC)) of the same compound?
Its T/C is 71 % of control.

`O=C(O)c1cc(C(=O)O)c(C(=O)O)cc1C(=O)O.[NH2-].[NH2-].[NH2-].[NH2-].[Pt+2].[Pt+2]` was tested. Which T/C (dose: 12.5 mg/kg/injection, vehicle: water) did it give?
Its T/C is 102 % of control.

With `O=C(O)CCCc1ccc(N(CCCl)CCCl)cc1` as the compound, how does the T/C (dose: 0.13 mg/kg/injection, vehicle: Klucel (hydroxypropylcellulose) (HPC)) read?
Its T/C is 93 % of control.

What about the T/C (dose: 0.2 mg/kg/injection, vehicle: Klucel (hydroxypropylcellulose) (HPC)) of the same compound?
Its T/C is 101 % of control.

And the T/C (dose: 0.3 mg/kg/injection, vehicle: Klucel (hydroxypropylcellulose) (HPC))?
Its T/C is 169 % of control.

And the T/C (dose: 12.0 mg/kg/injection, vehicle: saline with Tween-80)?
Its T/C is 118 % of control.

What about the T/C (dose: 18.0 mg/kg/injection, vehicle: saline with Tween-80) of the same compound?
Its T/C is 64 % of control.

And the T/C (dose: 27.0 mg/kg/injection, vehicle: saline with Tween-80)?
Its T/C is 15 % of control.

What does the source list for `ClCCCSSCCCCl`?
T/C (dose: 62.5 mg/kg/injection, vehicle: saline with Tween-80): 56 % of control; T/C [9]: 76 % of control; T/C [10]: 81 % of control; T/C [11]: 82 % of control

Which results are given for `CC(=O)c1cccc(NC2C(N)C(NC(=O)N(C)C)(C(C)O)C(C)(O)C2(O)COC(=O)c2c(C)cccc2O)c1` (stereo not drawn)?
T/C (dose: 6.25 mg/kg/injection, vehicle: suspension in saline): 183 % of control; T/C (dose: 12.5 mg/kg/injection, vehicle: suspension in saline): 121 % of control; T/C (dose: 25.0 mg/kg/injection, vehicle: suspension in saline): 120 % of control; T/C (dose: 50.0 mg/kg/injection, vehicle: suspension in saline): 68 % of control

`O=C1c2ccccc2C(Cl)(c2ccc(Cl)cc2)c2ccc(Cl)cc21` (stereo not drawn) was tested. Which T/C [12] did it give?
Its T/C is 244 % of control.

How did the T/C [5] turn out when `[NH-]C(CCC(N)=O)C(=O)O.[NH-]C(CCC(N)=O)C(=O)O.[Zn+2]` (stereo not drawn) was run?
Its T/C is 83 % of control.

What about the T/C [6] of the same compound?
The T/C was 29 % of control.

And the T/C [13]?
The T/C was 54 % of control.

With `NC(=S=O)C(N)=S=O` as the compound, how does the T/C [9] read?
The T/C was 97 % of control.

And the T/C [10]?
The T/C was 98 % of control.

And the T/C [11]?
The T/C was 100 % of control.

What does the source list for `Nc1ccc2ccc(NS(=O)(=O)N3CCCCC3)cc2c1`?
T/C [12]: 94 % of control; T/C [14]: 60 % of control; T/C [15]: 32 % of control

With `N[C@@H](Cc1c[nH]c2ccccc12)C(=O)Nc1nncs1` as the compound, how does the T/C [1] read?
Its T/C is 74 % of control.

And the T/C [2]?
The T/C was 67 % of control.

What about the T/C [16] of the same compound?
The T/C was 70 % of control.

With `COC1=C(C)C(=O)C2=C(C1=O)C(CO)N1C(C#N)C3CC4C(C1C2N1CCOC41)N3C` (stereo not drawn) as the compound, how does the T/C (dose: 1.25 mg/kg/injection, vehicle: saline + alcohol) read?
The T/C was 117 % of control.

What about the T/C (dose: 2.5 mg/kg/injection, vehicle: saline + alcohol) of the same compound?
The T/C was 45 % of control.

Which results are given for `O=C([O][Bi]([c]1ccccc1)[c]1ccccc1)c1ccccc1`?
T/C (dose: 25.0 mg/kg/injection, vehicle: Klucel (hydroxypropylcellulose) (HPC)): 83 % of control; T/C (dose: 50.0 mg/kg/injection, vehicle: Klucel (hydroxypropylcellulose) (HPC)): 76 % of control; T/C [4]: 73 % of control

Which T/C [5] does the source give for `CCOC(=O)C1=C(C)O/C(=C/c2cccc(Cl)c2)C1=O` here?
The T/C was 48 % of control.

And the T/C [6]?
The T/C was 51 % of control.

And the T/C [13]?
The T/C was 77 % of control.

What about the T/C (dose: 200.0 mg/kg/injection, vehicle: saline with Tween-80) of the same compound?
The T/C was 18 % of control.

Which results are given for `S=C(NCNC(=S)c1ccncc1)c1ccncc1`?
T/C [12]: 420 % of control; T/C [14]: 260 % of control; T/C [15]: 317 % of control

Which results are given for `CN1COc2c(n(C)c(=O)[nH]c2=O)C1`?
T/C [1]: 97 % of control; T/C [2]: 46 % of control; T/C [16]: 88 % of control; T/C (dose: 1200.0 mg/kg/injection, vehicle: suspension in saline): 67 % of control

Which results are given for `COc1ccc(C[C@@H]2NC[C@@H](O)[C@@H]2OC(C)=O)cc1`?
T/C [3]: 87 % of control; T/C (dose: 75.0 mg/kg/injection, vehicle: saline with Tween-80): 48 % of control; T/C [12]: 86 % of control
